US20250032658A1, “SYSTEMS AND METHODS FOR NEUTRALIZATION OF AIRBORNE ALLERGENS WITH ORGANIC ACIDS” (The Clorox Company, priority 2023, published 2025)
Where two headings read alike, the source gives them in different places.

Legend:
[1] = room temperature and standard pressure; cited from earlier work
[2] = cited from earlier work
[3] = pKa / acid form of lactic acid; type: physicochemical; settings: at a pH of 2.2
From the text: In some example embodiments, the pH of the anti-allergen formulations can be kept low. A low pH can enhance the organic acid efficacy (e.g., lactic acid efficacy) in neutralization of airborne allergens. Typically, pH is kept a least 1 unit below pKa of the organic acid to ensure majority (at least 90%) of acid stays in the active (conjugate acid) form. […].

lactic acid in the acidic form [3]	SMILES	Vapor Pressure [1] [Pa]	Solubility in water ([2]; at ~20° C.)	Solubility in water [2]
–	CC(=O)O [acetic acid]	2080	–	–
–	O=C(O)CCCCC(=O)O [adipic acid]	9.70	–	–
–	O=C(O)c1ccccc1 [benzoic acid]	0.11	–	–
–	CCCC(=O)O [butyric acid]	100	–	–
–	O=C(O)CC(O)(CC(=O)O)C(=O)O [citric acid]	0.000002	–	–
–	O=C(O)/C=C/C(=O)O [fumaric acid]	–	0.7 g of compound in 100 g of water	–
–	NCC(=O)O [glycine]	0.000017	–	–
–	O=C(O)CO [glycolic acid]	0.41	–	–
–	CCCCCCC(=O)O [heptanoic acid]	1.35	0.2 g of compound in 100 g of water	–
–	CCCCCC(=O)O [hexanoic acid]	5.80	–	1.03 g of compound in 100 g of water
at least 95%	CC(O)C(=O)O (stereo not drawn) [lactic acid]	10.00	–	–
–	CC(=O)CCC(=O)O [levulinic acid]	0.374	79.13 g of compound in 100 g of water	–
–	O=C(O)/C=C\C(=O)O [maleic acid]	–	47.88 g of compound in 100 g of water	–
–	O=C(O)CC(O)C(=O)O (stereo not drawn) [malic acid]	0.000004	64.7 g of compound in 100 g of water	–
–	O=C(O)CC(=O)O [malonic acid]	0.00049	–	–
–	CS(=O)(=O)O [methane sulfonic acid]	0.048	100 g of compound in 100 g of water	–
–	CCCCCCCC(=O)O [octanoic acid]	0.49	–	–
–	CCC(=O)O [propionic acid]	390	–	–
–	CC(=O)C(=O)O [pyruvic acid]	172	100 g of compound in 100 g of water	–
–	C/C=C/C=C/C(=O)O [sorbic acid]	0.018	0.156 g of compound in 100 g of water	–
–	CCCCC(=O)O [valeric acid]	100	3.75 g of compound in 100 g of water	–
